Assay results as given in patent US20050009894A1 (Aventis Pharma S.A., priority 2001, published 2005).

biological target: T1, human KDR enzyme (Homo sapiens, UniProt P35968); experiment: Phosphorylation of the substrate PLCγ by the enzyme KDR in vitro (flashplate technique); assay type: biochemical; conditions: Table VII, degrees of activity by IC50 range; read-out: Activity
T1 construct: The cytoplasmic domain of human KDR enzyme is cloned in the form of a GST fusion; GST; made in house; host or cells: SF21 insect cells (baculovirus, pFastBac)
Procedure, shortened: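 GST-fused human KDR cytoplasmic domain (Sf21 baculovirus, ~60% pure; 100 ng/well) phosphorylating 2 μg GST-PLCγ SH2-SH3 fragment in MOPS pH 7.2 with MgCl2/MnCl2, 1 h at 37° C. Started with γ33P-ATP plus cold ATP (2 μM in start solution); flashplate radioactivity. % inhibition vs no-compound control; IC50 from dose-response curves.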

T1 sequence (P35968 786-1356 limits assumed): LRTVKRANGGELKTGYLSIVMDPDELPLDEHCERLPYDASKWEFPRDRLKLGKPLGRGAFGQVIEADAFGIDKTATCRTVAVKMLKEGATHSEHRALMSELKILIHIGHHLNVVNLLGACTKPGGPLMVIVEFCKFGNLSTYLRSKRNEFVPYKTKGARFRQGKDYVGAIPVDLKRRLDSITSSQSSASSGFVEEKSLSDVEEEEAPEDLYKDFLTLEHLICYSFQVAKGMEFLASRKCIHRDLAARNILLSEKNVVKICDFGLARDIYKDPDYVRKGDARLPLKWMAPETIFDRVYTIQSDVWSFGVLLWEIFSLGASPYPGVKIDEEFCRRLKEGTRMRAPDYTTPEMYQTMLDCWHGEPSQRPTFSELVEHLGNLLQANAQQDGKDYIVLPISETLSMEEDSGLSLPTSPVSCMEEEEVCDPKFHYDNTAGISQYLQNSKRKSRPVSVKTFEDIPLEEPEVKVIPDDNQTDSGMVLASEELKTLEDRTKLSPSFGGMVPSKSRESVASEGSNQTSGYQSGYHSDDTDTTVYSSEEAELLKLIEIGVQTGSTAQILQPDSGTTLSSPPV

Row | Structure (SMILES) | IC50 [µM]
1 | Clc1cc(Cl)cc(-c2ccc3nc(-c4[nH]nc5ccccc45)[nH]c3c2)c1 [Example 104, 3-[6-(3,5-Dichloro-phenyl)-1H-benzoimidazol-2-yl]-2H-indazole] | > 3
2 | c1ccc2c(c1)Sc1cccc(-c3ccc4nc(-c5n[nH]c6ccccc56)[nH]c4c3)c1S2 [Example 105, 3-(6-Thianthren-1-yl-1H-benzoimidazol-2-yl)-2H-indazole] | > 3
3 | c1ccc(-c2ccc(-c3ccc4nc(-c5[nH]nc6ccccc56)[nH]c4c3)cc2)cc1 [Example 106, 3-(6-Biphenyl-4-yl-1H-benzoimidazol-2-yl)-2H-indazole] | > 3
4 | Cc1ccc(-c2ccc3nc(-c4[nH]nc5ccccc45)[nH]c3c2)cc1 [Example 107, 3-(6-p-Tolyl-1H-benzoimidazol-2-yl)-2H-indazole] | > 3
5 | Cc1cccc(-c2ccc3nc(-c4[nH]nc5ccccc45)[nH]c3c2)c1 [Example 108, 3-(6-m-Tolyl-1H-benzoimidazol-2-yl)-2H-indazole] | 0.3 to 3
6 | Cc1ccccc1-c1ccc2nc(-c3[nH]nc4ccccc34)[nH]c2c1 [Example 109, 3-(6-o-Tolyl-1H-benzoimidazol-2-yl)-2H-indazole] | 0.3 to 3
7 | c1ccc2c(-c3nc4ccc(-c5ccsc5)cc4[nH]3)[nH]nc2c1 [Example 110, 3-(6-Thiophen-3-yl-1H-benzoimidazol-2-yl)-2H-indazole] | 0.3 to 3
8 | FC(F)(F)c1cccc(-c2ccc3nc(-c4[nH]nc5ccccc45)[nH]c3c2)c1 [Example 111, 3-[6-(3-Trifluoromethyl-phenyl)-1H-benzoimidazol-2-yl]-2H-indazole] | > 3
9 | FC(F)(F)c1ccc(-c2ccc3nc(-c4[nH]nc5ccccc45)[nH]c3c2)cc1 [Example 112, 3-[6-(4-Trifluoromethyl-phenyl)-1H-benzoimidazol-2-yl]-2H-indazole] | > 3
10 | Clc1cccc(-c2ccc3nc(-c4[nH]nc5ccccc45)[nH]c3c2)c1 [Example 113, 3-[6-(3-Chloro-phenyl)-1H-benzoimidazol-2-yl]-2H-indazole] | 0.3 to 3
11 | COc1cccc(-c2ccc3nc(-c4[nH]nc5ccccc45)[nH]c3c2)c1 [Example 114, 3-[6-(3-Methoxy-phenyl)-1H-benzoimidazol-2-yl]-2H-indazole] | 0.3 to 3
12 | Cc1cc(C)cc(-c2ccc3nc(-c4[nH]nc5ccccc45)[nH]c3c2)c1 [Example 115, 3-[6-(3,5-Dimethyl-phenyl)-1H-benzoimidazol-2-yl]-2H-indazole] | 0.3 to 3
13 | Cc1ccc(-c2ccc3nc(-c4[nH]nc5ccccc45)[nH]c3c2)cc1C [Example 116, 3-[6-(3,4-Dimethyl-phenyl)-1H-benzoimidazol-2-yl]-2H-indazole] | > 3
14 | c1ccc2c(-c3nc4ccc(-c5ccc6c(c5)OCO6)cc4[nH]3)[nH]nc2c1 [Example 117, 3-(6-Benzo[1,3]dioxole-5-yl-1H-benzoimidazol-2-yl)-2H-indazole] | 0.3 to 3
15 | CC(C)(C)c1ccc(-c2ccc3nc(-c4[nH]nc5ccccc45)[nH]c3c2)cc1 [Example 118, 3-[6-(4-tert-Butyl-phenyl)-1H-benzoimidazol-2-yl]-2H-indazole] | > 3
16 | CCCC/C=C/c1ccc2nc(-c3[nH]nc4ccccc34)[nH]c2c1 [Example 119, 3-(6-Hex-1-enyl-1H-benzoimidazol-2-yl)-2H-indazole] | 0.3 to 3
17 | COc1ccc(-c2ccc3nc(-c4[nH]nc5ccccc45)[nH]c3c2)cc1OC [Example 120, 3-[6-(3,4-Dimethoxy-phenyl)-1H-benzoimidazol-2-yl]-2H-indazole] | 0.3 to 3
18 | Oc1cccc(-c2ccc3nc(-c4[nH]nc5ccccc45)[nH]c3c2)c1 [Example 121, 3-[2-(2H-Indazol-3-yl)-3H-benzoimidazol-5-yl]-phenol] | 0.3 to 3
19 | Oc1ccc(-c2ccc3nc(-c4[nH]nc5ccccc45)[nH]c3c2)cc1 [Example 122, 4-[2-(2H-Indazol-3-yl)-3H-benzoimidazol-5-yl]-phenol] | 0.3 to 3
